Measured values as given in ChEMBL document CHEMBL3217594, “Structureactivity relationships of methyl-lysine reader antagonists” (Medchemcomm, 2012).
pIC50: −log10 of the molar value. Active and inactive are the calls of the source. No cut-off for these calls is given here.

Key:
[1] = target: T1, Chromobox protein homolog 7 (Homo sapiens) (UniProt O95931); assay: Antagonist activity at Flag-tagged CBX7 (unknown origin) assessed as inhibition of CBX7/biotinylated H3K9Me3 peptide interaction at 30 uM after 30 mins by AlphaScreen assay
T1 sequence (whole entry): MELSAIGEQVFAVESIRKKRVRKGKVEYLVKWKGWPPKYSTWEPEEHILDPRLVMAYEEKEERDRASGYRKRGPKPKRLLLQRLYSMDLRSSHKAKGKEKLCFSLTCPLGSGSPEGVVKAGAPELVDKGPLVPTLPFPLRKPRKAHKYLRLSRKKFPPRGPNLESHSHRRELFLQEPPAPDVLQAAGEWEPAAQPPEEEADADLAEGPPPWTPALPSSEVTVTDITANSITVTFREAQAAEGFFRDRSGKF

[2] = target: T2, MBT domain-containing protein 1 (Homo sapiens, UniProt Q05BQ5); assay: Antagonist activity at MBTD1 (unknown origin) assessed as inhibition of MBTD1/biotinylated H4K20Me1 peptide interaction after 30 mins by AlphaScreen assay
T2 sequence (Q05BQ5 whole entry, the tested form may be a part): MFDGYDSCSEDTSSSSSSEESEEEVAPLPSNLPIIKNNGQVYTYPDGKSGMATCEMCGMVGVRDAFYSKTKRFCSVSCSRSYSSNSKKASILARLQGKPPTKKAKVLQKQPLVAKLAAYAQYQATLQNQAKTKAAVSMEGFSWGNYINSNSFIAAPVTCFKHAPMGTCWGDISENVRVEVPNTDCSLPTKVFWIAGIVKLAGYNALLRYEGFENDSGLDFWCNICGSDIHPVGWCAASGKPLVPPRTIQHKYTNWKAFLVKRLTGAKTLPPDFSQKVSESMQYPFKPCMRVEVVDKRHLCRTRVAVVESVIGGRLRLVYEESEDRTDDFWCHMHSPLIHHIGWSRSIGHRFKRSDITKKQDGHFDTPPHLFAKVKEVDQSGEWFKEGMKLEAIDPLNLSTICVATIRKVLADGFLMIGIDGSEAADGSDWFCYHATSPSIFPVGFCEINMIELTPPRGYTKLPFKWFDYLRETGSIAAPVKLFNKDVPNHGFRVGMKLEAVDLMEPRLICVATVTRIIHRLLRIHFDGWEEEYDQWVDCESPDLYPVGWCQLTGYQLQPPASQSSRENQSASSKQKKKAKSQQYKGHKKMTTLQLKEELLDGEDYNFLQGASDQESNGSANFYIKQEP

[3] = target: T2, MBT domain-containing protein 1; assay: Antagonist activity at MBTD1 (unknown origin) assessed as inhibition of MBTD1/biotinylated H4K20Me1 peptide interaction at 30 uM after 30 mins by AlphaScreen assay
[4] = target: T3, Lethal(3)malignant brain tumor-like protein 4 (Homo sapiens, UniProt Q8NA19); assay: Antagonist activity at L3MBTL4 (unknown origin) assessed as inhibition of L3MBTL4/biotinylated H2AK36Me1 peptide interaction after 30 mins by AlphaScreen assay
T3 sequence (Q8NA19 whole entry): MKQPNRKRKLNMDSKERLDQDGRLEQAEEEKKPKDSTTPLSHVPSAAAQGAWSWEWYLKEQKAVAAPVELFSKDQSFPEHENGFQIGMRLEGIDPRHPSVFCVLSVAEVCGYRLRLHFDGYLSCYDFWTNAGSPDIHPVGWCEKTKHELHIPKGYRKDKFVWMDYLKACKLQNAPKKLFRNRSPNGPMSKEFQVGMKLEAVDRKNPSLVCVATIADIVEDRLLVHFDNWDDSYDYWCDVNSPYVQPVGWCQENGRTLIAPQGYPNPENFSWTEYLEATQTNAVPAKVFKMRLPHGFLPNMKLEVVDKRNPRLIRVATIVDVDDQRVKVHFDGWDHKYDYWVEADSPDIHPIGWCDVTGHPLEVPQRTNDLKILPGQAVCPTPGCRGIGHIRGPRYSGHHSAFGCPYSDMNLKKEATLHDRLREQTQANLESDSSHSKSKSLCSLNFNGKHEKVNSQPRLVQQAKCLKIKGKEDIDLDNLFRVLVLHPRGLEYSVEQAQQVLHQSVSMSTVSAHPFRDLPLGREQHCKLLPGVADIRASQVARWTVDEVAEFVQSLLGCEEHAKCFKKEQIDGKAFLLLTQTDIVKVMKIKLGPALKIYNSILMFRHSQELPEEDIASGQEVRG

[5] = target: T4, Scm-like with four MBT domains protein 1 (Homo sapiens, UniProt Q9UHJ3); assay: Antagonist activity at SFMBT1 (unknown origin) assessed as inhibition of SFMBT1/biotinylated H3K9Me1 peptide interaction after 30 mins by AlphaScreen assay
T4 sequence (Q9UHJ3 whole entry): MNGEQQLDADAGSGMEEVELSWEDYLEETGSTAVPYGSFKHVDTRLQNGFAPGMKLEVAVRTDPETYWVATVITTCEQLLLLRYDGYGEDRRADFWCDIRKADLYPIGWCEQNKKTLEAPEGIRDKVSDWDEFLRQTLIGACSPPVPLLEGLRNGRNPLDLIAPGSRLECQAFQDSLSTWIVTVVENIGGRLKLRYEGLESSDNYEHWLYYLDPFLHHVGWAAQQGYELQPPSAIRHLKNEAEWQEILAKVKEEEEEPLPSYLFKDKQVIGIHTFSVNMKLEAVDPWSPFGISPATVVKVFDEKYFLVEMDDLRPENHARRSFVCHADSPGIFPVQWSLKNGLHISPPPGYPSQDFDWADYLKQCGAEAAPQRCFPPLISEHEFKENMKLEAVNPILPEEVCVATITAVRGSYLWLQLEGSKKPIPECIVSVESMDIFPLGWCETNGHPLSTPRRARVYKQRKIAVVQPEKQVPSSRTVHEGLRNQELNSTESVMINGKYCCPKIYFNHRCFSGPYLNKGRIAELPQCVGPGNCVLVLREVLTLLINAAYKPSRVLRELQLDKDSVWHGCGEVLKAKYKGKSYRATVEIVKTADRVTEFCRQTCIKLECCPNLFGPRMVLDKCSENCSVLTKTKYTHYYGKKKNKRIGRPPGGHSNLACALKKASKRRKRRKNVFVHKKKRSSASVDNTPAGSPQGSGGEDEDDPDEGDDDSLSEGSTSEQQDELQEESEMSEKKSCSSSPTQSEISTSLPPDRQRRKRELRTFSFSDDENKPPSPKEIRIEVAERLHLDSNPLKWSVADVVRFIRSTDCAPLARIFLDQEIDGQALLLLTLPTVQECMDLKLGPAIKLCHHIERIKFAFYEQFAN

[6] = target: T5, Lethal(3)malignant brain tumor-like protein 3 (Homo sapiens) (UniProt Q96JM7); assay: Antagonist activity at His-tagged L3MBTL3 (unknown origin) assessed as inhibition of L3MBTL3/biotinylated H4K20Me2 peptide interaction at 30 uM after 30 mins by AlphaScreen assay
T5 sequence (whole entry): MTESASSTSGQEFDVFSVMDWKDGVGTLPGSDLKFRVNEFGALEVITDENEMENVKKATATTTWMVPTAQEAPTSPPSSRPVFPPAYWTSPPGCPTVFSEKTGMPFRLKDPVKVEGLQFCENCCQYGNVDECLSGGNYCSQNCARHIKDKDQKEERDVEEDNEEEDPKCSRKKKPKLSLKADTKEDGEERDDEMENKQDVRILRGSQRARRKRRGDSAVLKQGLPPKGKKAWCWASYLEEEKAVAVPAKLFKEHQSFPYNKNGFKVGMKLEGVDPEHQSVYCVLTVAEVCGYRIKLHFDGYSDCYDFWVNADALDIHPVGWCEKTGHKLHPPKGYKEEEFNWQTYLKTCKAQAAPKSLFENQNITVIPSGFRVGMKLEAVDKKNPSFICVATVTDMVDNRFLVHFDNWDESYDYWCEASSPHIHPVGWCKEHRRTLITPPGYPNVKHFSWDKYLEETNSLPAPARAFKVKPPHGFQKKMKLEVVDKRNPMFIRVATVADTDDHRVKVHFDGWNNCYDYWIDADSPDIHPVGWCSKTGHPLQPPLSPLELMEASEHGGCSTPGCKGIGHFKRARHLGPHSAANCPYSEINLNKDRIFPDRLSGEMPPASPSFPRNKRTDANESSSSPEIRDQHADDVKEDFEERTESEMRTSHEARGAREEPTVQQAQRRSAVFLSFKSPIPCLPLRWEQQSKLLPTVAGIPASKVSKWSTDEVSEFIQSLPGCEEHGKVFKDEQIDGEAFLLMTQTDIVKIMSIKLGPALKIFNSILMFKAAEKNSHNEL

[7] = target: T6, Lethal(3)malignant brain tumor-like protein 4 (Homo sapiens) (UniProt Q8NA19); assay: Antagonist activity at L3MBTL4 (unknown origin) assessed as inhibition of L3MBTL4/biotinylated H2AK36Me1 peptide interaction at 30 uM after 30 mins by AlphaScreen assay
T6 sequence (whole entry): T3 sequence (Q8NA19 whole entry)

| SMILES | inhibition [1] | pIC50 [2] | inhibition [3] | pIC50 [5] | pIC50 [4] | inhibition [6] | inhibition [7] |
| --- | --- | --- | --- | --- | --- | --- | --- |
| CN(C)C1CCN(C(=O)c2cccc(Br)c2)CC1 | inactive | < 4.52 | 1% | < 4.52 | < 4.52 | 18% | inactive |
| O=C(c1cccc(Br)c1)N1CCC(N2CCCC2)C1 (configuration not stated) | 4% | < 4.52 | 13% | < 4.52 | < 4.52 | 40% | inactive |
| CNC1CCN(C(=O)c2cccc(Br)c2)CC1 | 3% | < 4.52 | 3% | < 4.52 | < 4.52 | 9% | inactive |
| CN1CCCC1C1CCN(C(=O)c2cccc(Br)c2)CC1 (configuration not stated) | inactive | < 4.52 | 32% | < 4.52 | < 4.52 | – | inactive |
| O=C(O)c1cccc(C(=O)N2CCC(N3CCCC3)CC2)c1 | 4% | < 4.52 | 4% | < 4.52 | < 4.52 | – | 26% |
| C[N+]1(C2CCN(C(=O)c3cccc(Br)c3)CC2)CCCC1 | 17% | < 4.52 | 3% | < 4.52 | < 4.52 | 13% | inactive |
| O=C(c1cccc(Br)c1)N1CCC(N2CCC2)CC1 | 11% | < 4.52 | 20% | < 4.52 | < 4.52 | – | 4% |
| CC1CCCN1C1CCN(C(=O)c2cccc(Br)c2)CC1 (configuration not stated) | inactive | < 4.52 | 16% | < 4.52 | < 4.52 | 25% | inactive |
| O=C(c1cccc(Br)c1)N1CCN(C2CCCC2)CC1 | 1% | < 4.52 | inactive | < 4.52 | < 4.52 | 5% | inactive |

The next lines start with results.

| inhibition [1] | pIC50 [2] | inhibition [3] | pIC50 [5] | SMILES | pIC50 [4] | inhibition [6] | inhibition [7] |
| --- | --- | --- | --- | --- | --- | --- | --- |
| 11% | < 4.52 | 44% | < 4.52 | O=C(c1cccc(Br)c1)N1CCC(N2CCCC2)CC1 | 4.81 | – | – |
| 3% | 4.53 | – | < 4.52 | O=C(c1cccc(Br)c1)N1CCC(N2CCCCC2)CC1 | < 4.52 | 21% | inactive |
| inactive | 5.05 | – | < 4.52 | CC(c1cccc(Br)c1)N1CCC(N2CCCC2)CC1 (racemic) | < 4.52 | – | 13% |
| inactive | 4.73 | – | < 4.52 | Brc1cccc(CN2CCC(N3CCCC3)CC2)c1 | < 4.52 | – | 10% |
| inactive | 5.04 | – | < 4.52 | O=C(c1cccc(Br)c1)N1CCC(C2CCCN2)CC1 (configuration not stated) | < 4.52 | 52% | inactive |
| inactive | 4.66 | – | < 4.52 | O=S(=O)(c1cccc(Br)c1)N1CCC(N2CCCC2)CC1 | < 4.52 | – | 6% |
